Experimental data published in patent publication US7276604B2, “Crystalline form of the sodium salt of 3-pyridyl-1-hydroxyethylidene-1,1-bisphosphonic acid” (Zentiva A.S., priority 2002, dated 2007).
Counter-ions that a name gives are not always drawn.

How the values were obtained:
Assay type in all cases: physicochemical
[1] = Drying in vacuum oven and re-uptake of water (stability of water content, Karl Fischer / TGA); conditions: for water content after standing at 100% relative air humidity: within two hours; for hygroscopicity of the dried product: after drying in a vacuum oven
Text: An useful example of such a hydrate is a modification that is characterized by water content 20 up to 23%, specially with 22.8 w. % of water, and sodium content 5.5 up to 7.5%, specially 6.4 up to 6.7 w. %. The specified water content is built in the crystal lattice and the mentioned crystalline modification is thermodynamically stable. By drying with several different drying regimes, the mentioned crystalline modification was dried to the water content corresponding to the pentahemihydrate, the monohydrate and the anhydrous form of sodium 3-pyridyl-1-hydroxyethylidene-1,1-bisphosphonate. When the substance is left standing on the air, the water content stabilizes spontaneously at the original level. Time that it takes for the water content to stabilize depends on relative humidity in the environment in which the dried substance is placed.
(§1) Water content in the substance was determined using a method according to Karl Fischer and TGA analyses. Sodium content in the substance was determined using acidobasic titration and AAS. Solubility tests were performed according to the Technical Guide European Pharmacopeia.
The dried product is hygroscopic. If the substance is left standing at room temperature and usual relative air humidity, the water content returns to the original level within 12 hours.
In the pentahydrate dried in a vacuum oven at 105° C., the substance's water content decreases to 3% after six hours. The dried product is hygroscopic. If the substance is left standing at room temperature and usual relative air humidity, the water content increases with a speed of about 0.5% an hour. Within 11 days, the substance's water content returns to about 20 weight %.
(§2) In trihydrate of the trisodium salt dried in a vacuum oven at 105° C., the substance's water content decreases to 1.1% after 6 hours. The dried product is hygroscopic. If the substance is placed in an environment with 100% relative air humidity, the water content returns to the original level within two hours.
as §2, with “disodium” for “trisodium”, “approximately 1.7%” for “1.1%”, “the” for “the original”, “level of approximately 5.2%” for “level”

[2] = Solubility test in water (Technical Guide European Pharmacopeia); conditions: for dissolution observed: 0.1, 0.9 and 2.0 ml added gradually, 25° C. for 15 min; for proportion of the dissolved substance: 3.0 ml added in total to about 100 mg, 25° C., HPLC
Method: as §1
(§3) 0.1 ml; 0.9 ml and 2.0 ml of water were gradually added to a 100.25 mg sample of risedronate monosodium salt pentahemihydrate. The suspension was mixed for about 1 min and tempered to 25° C. for 15 min after each addition of water. […] The proportion of the dissolved substance was determined to be 100% using HPLC.
as §3, with “98.78” for “100.25”, “pentahydrate.” for “pentahemihydrate.”

[3] = Solubility test in 0.1 M HCl with pH 1.1 (Technical Guide European Pharmacopeia); conditions: for dissolution observed: 0.1 M HCl pH 1.1, 0.1, 0.9, 2.0 and 7.0 ml added gradually, 25° C. for 15 min; for proportion of the dissolved substance: 0.1 M HCl pH 1.1, 10.0 ml added in total to about 100 mg, 25° C., HPLC
Method: as §1
(§4) 0.1 ml; 0.9 ml, 2.0 and 7.0 ml of 0.1 M HCl with pH 1.1 were gradually added to a 106.8 mg sample of risedronate monosodium salt pentahemihydrate. The suspension was mixed for 1 min and tempered to 25° C. for 15 min after each addition of acid. […] The proportion of the dissolved substance was determined to be 9.46% using HPLC.
as §4, with “99.07” for “106.8”, “pentahydrate.” for “pentahemihydrate.”, “31.62%” for “9.46%”

[4] = after drying at 105° C., 100% relative air humidity
[5] = vacuum oven at 105° C., after 6 hours

| Structure (SMILES) | dissolution observed [2] | proportion of the dissolved substance [2] | dissolution observed [3] | proportion of the dissolved substance [3] | hygroscopicity of the dried product [1] | water content after drying [1, 5] | other results |
| --- | --- | --- | --- | --- | --- | --- | --- |
| O=P(O)(O)C(O)(Cc1cccnc1)P(=O)(O)O [Risedronate disodium salt monohydrate, disodium 3-pyridyl-1-hydroxyethylidene-1,1-bisphosphonate] | – | – | – | – | – | – | water content after standing at 100% relative air humidity ([1]; after drying at 105° C., 100% relative air humidity, listed as trihydrate of the disodium salt): approximately 5.2%; period in which the water content mostly stabilizes at the given value ([1]; dried at different conditions, then high relative humidity, 'mostly'): less than 12 hours; water content after drying ([1]; vacuum oven at 105° C., after 6 hours, listed as trihydrate of the disodium salt): approximately 1.7% |
| O=P(O)(O)C(O)(Cc1cccnc1)P(=O)(O)O [risedronate monosodium salt pentahemihydrate] [monosodium 3-pyridyl-1-hydroxyethylidene-1,1-bisphosphonate, reference compound] | completely dissolved | 100% | did not dissolve completely | 9.46% | – | – | – |
| O=P(O)(O)C(O)(Cc1cccnc1)P(=O)(O)O [risedronate monosodium salt pentahydrate, monosodium 3-pyridyl-1-hydroxyethylidene-1,1-bisphosphonate] | completely dissolved | 100% | did not dissolve completely | 31.62% | hygroscopic | 3% | solubility in 0.1 M hydrochloric acid compared with the pentahemihydrate form ([3]; 0.1 M HCl pH 1.1): significantly more soluble; time for water content to return to the original level ([1]; after drying at 50° C., room temperature and usual relative air humidity): ≤ 12 h; water content after standing at 100% relative air humidity [1, 4]: 22.7%; speed of water content increase ([1]; after drying at 105° C., room temperature and usual relative air humidity): about 0.5 % an hour; water content after standing ([1]; after drying at 105° C., room temperature and usual relative air humidity, within 11 days): about 20 weight %; stability of the regained water content ([1]; usual lab conditions): stable and does not change; water content after drying ([1]; vacuum oven at 50° C., after six hours): 11.5% |
| O=P(O)(O)C(O)(Cc1cccnc1)P(=O)(O)O [trihydrate of the trisodium salt, trisodium 3-pyridyl-1-hydroxyethylidene-1,1-bisphosphonate] | – | – | – | – | hygroscopic | 1.1% | time for water content to return to the original level [1, 4]: two |
